Results on 15 compounds are retold here after patent US9458172B2, “Pyridinyl and pyrimidinyl sulfoxide and sulfone derivatives” (priority 2012, dated 2016).

The test system of one assay is mouse mammary carcinoma. As to conditions: mouse mammary carcinoma model; cited from earlier work.
A further assay relates to tumor cell lines. As to conditions: broad range of tumor cell lines; cited from earlier work.
A further assay has as its system A2780 cells. Description: In-Vitro Cell Proliferation Assay (SRB).
In another assay the target is NAMPT (Homo sapiens (Human), UniProt P43490). Description: Biochemical Inhibition Assay (NAMPT enzymatic reaction, NMN quantified by mass spectrometry). Particulars: 33 nM recombinant His-tagged NAMPT, 1 μM NAM, 30 min at rt. In short, it runs like this:
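His-tagged human NAMPT from E. coli preincubated 15 min at rt with compound in 50 mM Hepes pH 7.5, 50 mM NaCl, 5 mM MgCl2, 1 mM THP, then reacted 30 min at rt with 1 μM NAM, […] PRPP, 2.5 mM ATP. NMN quantified by RapidFire mass spectrometry, normalized to L-Cystathionine, background subtracted.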

Where [1] appears, read: Homo sapiens, A2780, 72 h, read-out: Cell Proliferation (IC50).

Like-named read-outs stand apart in the source and are kept apart here.

Sequence of NAMPT (P43490 whole entry): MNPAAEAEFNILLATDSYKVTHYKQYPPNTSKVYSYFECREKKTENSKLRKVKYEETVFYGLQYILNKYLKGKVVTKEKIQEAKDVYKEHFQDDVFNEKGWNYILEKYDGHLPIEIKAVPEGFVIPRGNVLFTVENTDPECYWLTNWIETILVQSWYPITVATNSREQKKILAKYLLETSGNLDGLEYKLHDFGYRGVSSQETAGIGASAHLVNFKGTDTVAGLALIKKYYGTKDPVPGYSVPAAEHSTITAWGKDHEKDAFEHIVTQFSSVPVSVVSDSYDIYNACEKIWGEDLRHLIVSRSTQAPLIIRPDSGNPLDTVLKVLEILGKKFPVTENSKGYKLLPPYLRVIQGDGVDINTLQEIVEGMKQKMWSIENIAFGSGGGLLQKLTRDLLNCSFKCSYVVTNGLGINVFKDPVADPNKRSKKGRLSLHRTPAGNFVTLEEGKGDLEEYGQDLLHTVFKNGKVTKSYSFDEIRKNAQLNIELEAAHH

In the case of `O=C(/C=C/c1cccnc1)NCCCCC1CCN(C(=O)c2ccccc2)CC1` [FK866], in the assay on mouse mammary carcinoma, the NAD levels entry is on record as “reduce NAD levels”, the tumor growth entry is given as “induce a delay in tumor growth” and the tumor radiosensitivity result is on record as “enhance tumor radiosensitivity”.

On to `N#CN=C(NCCCCCCOc1ccc(Cl)cc1)Nc1ccncc1` [CHS-828], for which the cell growth result in the assay with tumor cell lines is “potently inhibit cell growth”.

For `O=C(NCc1ccc(S(=O)(=O)c2cc(F)cc(F)c2)cn1)c1cnc2nccn2c1` [Example 2, Imidazo[1,2-a]pyrimidine-6-carboxylic acid [5-(3,5-difluoro-benzenesulfonyl)-pyridin-2-ylmethyl]-amide], the figures for the IC50 with A2780 cells (setting [1]) and on NAMPT were 52.6 nM and 6.5 nM, respectively.

Take `O=C(NCc1ccc(S(=O)(=O)c2ccccc2)cn1)N1Cc2cn[nH]c2C1` [Example 178, N-[[5-(benzenesulfonyl)-2-pyridyl]methyl]-4,6-dihydro-1H-pyrrolo[3,4-c]pyrazole-5-carboxamide]: the IC50 with A2780 cells (setting [1]) and at NAMPT was 2000 nM each time.

On to `CCCC(=O)N1CCC(S(=O)(=O)c2ccc(CNC(=O)c3cc4ccncc4o3)nc2)CC1` [Example 130, N-[[5-[(1-butanoyl-4-piperidyl)sulfonyl]-2-pyridyl]methyl]furo[2,3-c]pyridine-2-carboxamide], for which the IC50 in the assay with A2780 cells (setting [1]) was determined as 50.7 nM; at NAMPT, 39.8 nM.

Regarding `CCS(=O)(=O)c1cccc(S(=O)(=O)c2ccc(CNC(=O)c3cnc4[nH]ncc4c3)nc2)c1` [Example 106, 1H-Pyrazolo[3,4-b]pyridine-5-carboxylic acid [5-(3-ethanesulfonyl-benzenesulfonyl)-pyridin-2-ylmethyl]-amide], the IC50 in the assay with A2780 cells (setting [1]) worked out at 328 nM; on NAMPT, 135 nM.

In the case of `CC(C)CN1CCC([S+]([O-])c2ccc(CNC(=O)c3ccc4nccn4c3)nc2)CC1` (stereo not drawn) [Example 172, N-[[5-[(1-isobutyl-4-piperidyl)sulfinyl]-2-pyridyl]methyl]imidazo[1,2-a]pyridine-6-carboxamide], the IC50 with A2780 cells (setting [1]) was 106 nM; on NAMPT it was 249 nM.

Take `O=C(NCc1ccc([S+]([O-])C2CCN(CC(F)(F)F)CC2)cn1)c1cc2ccncc2o1` (stereo not drawn) [Example 118, N-[[5-[[1-(2,2,2-trifluoroethyl)-4-piperidyl]sulfinyl]-2-pyridyl]rnethyl]furo[2,3-c]pyridine-2-carboxamide]: the IC50 amounted to 12.2 nM with A2780 cells (read-out: Cell Proliferation (IC50), A2780 cells, 72 h, sulforhodamine B) and 76.1 nM on NAMPT.

For `COc1cc(OC)cc(S(=O)(=O)c2ccc(CNC(=O)c3cnc4[nH]ncc4c3)nc2)c1` [Example 139, N-[[5-(3,5-dimethoxyphenyl)sulfonyl-2-pyridyl]methyl]-1H-pyrazolo[3,4-b]pyridine-5-carboxamide], the IC50 with A2780 cells (setting [1]) was 3.11 nM; on NAMPT, 14.7 nM.

For the compound `O=C(NCc1ccc(S(=O)(=O)C2CCN(C3COC3)CC2)cn1)N1Cc2ccncc2C1` [Example 104, 1,3-Dihydro-pyrrolo[3,4-c]pyridine-2-carboxylic acid [5-(1-oxetan-3-yl-piperidine-4-sulfonyl)-pyridin-2-ylmethyl]-amide], the IC50 in the assay on A2780 cells (setting [1]) was found to be 116 nM; on NAMPT, 67.9 nM.

`O=C(NCc1ccc(S(=O)(=O)c2ccc(C(F)(F)F)nc2)cn1)c1cnc2[nH]ncc2c1` [Example 107, 1H-Pyrazolo[3,4-b]pyridine-5-carboxylic acid [5-(6-trifluoromethyl-pyridine-3-sulfonyl)-pyridin-2-ylmethyl]-amide]: the IC50 with A2780 cells (Homo sapiens, A2780, 72 h, read-out: Cell Proliferation (IC50), A2780 cells, 72 h, sulforhodamine B) was determined as 1300 nM; at NAMPT it was 731 nM.

Turning to `O=C(NCc1ccc(S(=O)(=O)C2CCN(C3CCOCC3)CC2)cn1)c1cnc2[nH]ncc2c1` [Example 162, N-[[5-[(1-tetrahydropyran-4-yl-4-piperidyl)sulfonyl]-2-pyridyl]methyl]-1H-pyrazolo[3,4-b]pyridine-5-carboxamide], the results for the IC50 in the assay on A2780 cells (setting [1]) and at NAMPT were 295 nM and 1830 nM, respectively.

With `O=C(NCc1ccc(S(=O)(=O)C2CCN(CC(F)(F)F)CC2)cn1)c1cnc2[nH]ncc2c1` [Example 153, N-[[5-[[1-(2,2,2-trifluoroethyl)-4-piperidyl]sulfonyl]-2-pyridyl]methyl]-1H-pyrazolo[3,4-b]pyridine-5-carboxamide], the IC50 with A2780 cells (setting [1]) came out at 1340 nM; on NAMPT, 1740 nM.

In the case of `O=C(NCc1ccc(S(=O)(=O)c2cc(F)cc(N3CCOCC3)c2)cn1)c1cnc2[nH]ncc2c1` [Example 85, 1H-Pyrazolo[3,4-b]pyridine-5-carboxylic acid [5-(3-fluoro-5-morpholin-4-yl-benzenesulfonyl)-pyridin-2-ylmethyl]-amide], the IC50 in the assay on A2780 cells (setting [1]) was found to be 9.7 nM; on NAMPT it was 32.9 nM.

Take `O=C(NCc1ccc(S(=O)(=O)C2CCOCC2)cn1)c1cc2ccncc2o1` [Example 51, Furo[2,3-c]pyridine-2-carboxylic acid [5-(tetrahydro-pyran-4-sulfonyl)-pyridin-2-ylmethyl]-amide]: the IC50 in the assay on A2780 cells (setting [1]) came out at 301 nM; at NAMPT, 170 nM.
